Assay results as given in ChEMBL document CHEMBL1131308, “Synthesis and biological activity of 4-amino-7-oxo-substituted analogues of 5-deaza-5,6,7,8-tetrahydrofolic acid and 5,10-dideaza-5, 6,7,8-tetrahydrofolic acid” (J Med Chem, 1998).
Values after ≈ are worked out from the molar mass of the structure shown.

Each compound was assayed on CCRF-CEM (assay: In vitro inhibitory activity against CCRF-CEM human leukemia cells using cytotoxicity assay.).
Format: functional, cell-based
Compound `CN(CC1Cc2c(N)nc(N)nc2NC1=O)c1ccc(C(=O)NC(CCC(=O)O)C(=O)O)cc1` (centres undefined) has an IC50 of over 20 mg/L.
`COC(=O)c1ccc(N(C)CC2Cc3c(N)nc(N)nc3NC2=O)cc1` (centres undefined) was tested, and the IC50 was over 20 mg/L.
`Nc1nc(N)c2c(n1)NC(=O)C(CCc1ccc(C(=O)O)cc1)C2` (centres undefined) showed an IC50 of 6.7 mg/L (≈ 20.5 µM).
Compound `Nc1nc(N)c2c(n1)NC(=O)C(CNc1ccc(C(=O)NC(CCC(=O)O)C(=O)O)cc1)C2` (centres undefined) has an IC50 of over 20 mg/L.
`COC(=O)c1ccc(NCC2Cc3c(N)nc(N)nc3NC2=O)cc1` (centres undefined) showed an IC50 of over 20 mg/L.
In the case of `Nc1nc(N)c2c(n1)NC(=O)C(CCc1ccc(C(=O)NC(CCC(=O)O)C(=O)O)cc1)C2` (centres undefined), the IC50 is reported as 39.2 mg/L (≈ 85.9 µM).
Work on `COC(=O)c1ccc(CCC2Cc3c(N)nc(N)nc3NC2=O)cc1` (centres undefined) yielded an IC50 of over 20 mg/L.
`Nc1nc(N)c2c(n1)NC(=O)C(CNc1ccc(C(=O)O)cc1)C2` (centres undefined) was tested, and the IC50 was over 20 mg/L.
Compound `CN(CC1Cc2c(N)nc(N)nc2NC1=O)c1ccc(C(=O)O)cc1` (centres undefined) has an IC50 of over 20 mg/L.
